Experimental data: US20240299376A1, “METHOD OF TREATING A CONDITION USING A […] EFFECTIVE DOSE OF 1-(1-OXO-1,2-DIHYDROISOQUINOLIN-5-YL)-5-(TRIFLUOROMETHYL)-N-(2-(TRIFLUOROMETHYL)PYRIDIN-4-YL)-1H-PYRAZOLE-4-CARBOXAMIDE” (Janssen Pharmaceutica NV, priority 2021, published 2024)
Like-named read-outs stand apart in the source and are kept apart here.

Experiments:
[1] = Serum and tumor levels after multiple oral doses in male OCI-LY3 tumor-bearing NSG mice; format: in vivo; details: mean (SD); for concentration at 7 h / concentration at 12 h / concentration at 4 h / concentration at 24 h / Kp at 12 h / Kp at 24 h: male, NSG, mouse; for concentration at 7 h: 7 h post dose; for Kp at 12 h: Day 5, 12 h post dose, read-out: Tumor: serum ratio; for Kp at 24 h: read-out: Tumor:serum ratio
Description: Serum samples were collected at 7 and 12 hours post dose and tumor samples were collected 12 hours post last dose from the twice-daily-treated animals. From once-daily-treated animals, serum samples were collected at 4, 12, and 24 hours post dose and tumor samples were collected at 24 hours post last dose.

[2] = Single oral dose plasma PK in fasted dogs; format: in vivo, dog; details: for bioavailability / AUC(0-inf) / Cmax / Tmax / AUC(0-t): beagle, dog, plasma, po; for AUC(0-t): Study 7, Tlast = 96 hours
Source text: With the suspension formulation the double-peak phenomenon is even more pronounced.
As observed in rats, dose escalation in dogs resulting in proportional or dose-related exposure with the PEG400 solution was unsuccessful in identifying a vehicle suitable for toxicology studies.

[3] = female, 100 mg/kg, 2F, 100 mg/kg PO, 100% PEG400 solution, Study 7
[4] = female, 280 mg/kg, 2F, 280 mg/kg PO, 100% PEG400 solution, Study 7

SMILES: O=C(Nc1ccnc(C(F)(F)F)c1)c1cnn(-c2cccc3c(=O)[nH]ccc23)c1C(F)(F)F [Compound A, 1-(1-oxo-1,2-dihydroisoquinolin-5-yl)-5-(trifluoromethyl)-N-[2-(trifluoromethyl)pyridin-4-yl]-1H-pyrazole-4-carboxamide]
- Serum concentration ([1]; 10 mg/kg twice daily PO, Day 5 eight doses given, 12 h post dose (trough)): 2,202 (313) ng/ml
- concentration at 7 h ([1]; serum, oral, 10 mg/kg, 10 mg/kg twice daily PO, Day 1 following first dose): 3260 ng/mL
- concentration at 12 h ([1]; serum, oral, 10 mg/kg, 10 mg/kg twice daily PO, Day 1 following first dose, 12 h post dose, read-out: Serum concentration): 2440 ng/mL
- concentration at 7 h ([1]; serum, oral, 10 mg/kg, 10 mg/kg twice daily PO, Day 4 seven doses given): 3760 ng/mL
- concentration at 12 h ([1]; serum, oral, 10 mg/kg, 10 mg/kg twice daily PO, Day 5 eight doses given, 12 h post dose (trough), read-out: Serum concentration): 2200 ng/mL
- concentration at 7 h ([1]; serum, oral, 30 mg/kg, 30 mg/kg twice daily PO, Day 1 following first dose): 9970 ng/mL
- concentration at 12 h ([1]; serum, oral, 30 mg/kg, 30 mg/kg twice daily PO, Day 1 following first dose, 12 h post dose, read-out: Serum concentration): 9000 ng/mL
- concentration at 7 h ([1]; serum, oral, 30 mg/kg, 30 mg/kg twice daily PO, Day 4 seven doses given): 7420 ng/mL
- concentration at 12 h ([1]; serum, oral, 30 mg/kg, 30 mg/kg twice daily PO, Day 5 eight doses given, 12 h post dose, read-out: Serum concentration): 3890 ng/mL
- concentration at 7 h ([1]; serum, oral, 100 mg/kg, 100 mg/kg twice daily PO, Day 1 following first dose): 16200 ng/mL
- concentration at 12 h ([1]; serum, oral, 100 mg/kg, 100 mg/kg twice daily PO, Day 1 following first dose, 12 h post dose, read-out: Serum concentration): 13300 ng/mL
- concentration at 12 h ([1]; serum, oral, 100 mg/kg, 100 mg/kg twice daily PO, Day 5 eight doses given, 12 h post dose, read-out: Serum concentration): 6910 ng/mL
- concentration at 4 h ([1]; serum, oral, once daily PO, dose not printed in Table 8 (first group; b301: 60 and 100 mg/kg), Day 1, 4 h post dose): 15000 ng/mL
- concentration at 4 h ([1]; serum, oral, once daily PO, dose not printed in Table 8 (second group; b301: 60 and 100 mg/kg), Day 1, 4 h post dose): 18100 ng/mL
- concentration at 24 h ([1]; serum, po, once daily PO, dose not given (first group), Day 1, 24 h post dose, read-out: Serum concentration): 2060 ng/mL
- concentration at 4 h ([1]; serum, po, once daily PO, dose not given (first group), Day 4, 4 h post dose): 9850 ng/mL
- concentration at 12 h ([1]; serum, po, once daily PO, dose not given (first group), Day 4, 12 h post dose, read-out: Serum concentration): 8680 ng/mL
- concentration at 24 h ([1]; serum, po, once daily PO, dose not given (first group), Day 4, 24 h post dose, read-out: Serum concentration): 1380 ng/mL
- concentration at 24 h ([1]; serum, po, once daily PO, dose not given (second group), Day 1, 24 h post dose, read-out: Serum concentration): 1970 ng/mL
- concentration at 4 h ([1]; serum, po, once daily PO, dose not given (second group), Day 4, 4 h post dose): 12600 ng/mL
- concentration at 12 h ([1]; serum, po, once daily PO, dose not given (second group), Day 4, 12 h post dose, read-out: Serum concentration): 11000 ng/mL
- concentration at 24 h ([1]; serum, po, once daily PO, dose not given (second group), Day 4, 24 h post dose, read-out: Serum concentration): 2800 ng/mL
- Kp at 12 h ([1]; tumor and serum, 10 mg/kg twice daily PO): 1
- Kp at 12 h ([1]; tumor and serum, 30 mg/kg twice daily PO): 1.3
- Kp at 12 h ([1]; tumor and serum, 100 mg/kg twice daily PO): 1.3
- Kp at 24 h ([1]; tumor and serum, once daily PO, dose not given (first group), Day 4, 24 h post dose): 1.9
- concentration at 12 h ([1]; tumor, oral, 10 mg/kg, 10 mg/kg twice daily PO, Day 5 eight doses given, 12 h post dose, read-out: Tumor concentration): 2160 ng/g
- concentration at 12 h ([1]; tumor, oral, 30 mg/kg, 30 mg/kg twice daily PO, Day 5 eight doses given, 12 h post dose, read-out: Tumor concentration): 5050 ng/g
- concentration at 12 h ([1]; tumor, oral, 100 mg/kg, 100 mg/kg twice daily PO, Day 5 eight doses given, 12 h post dose, read-out: Tumor concentration): 8830 ng/g
- concentration at 24 h ([1]; tumor, po, once daily PO, dose not given (first group), Day 4, 24 h post dose, read-out: Tumor concentration): 2460 ng/g
- concentration at 24 h ([1]; tumor, po, once daily PO, dose not given (second group), Day 4, 24 h post dose, read-out: Tumor concentration): 4300 ng/g
- Kp at 24 h ([1]; tumor/serum, once daily PO, dose not given (second group), Day 4, 24 h post dose): 1.6
- increase of Cmax or AUC with dose ([2]; Study 7, doses of 100, 280, and 560 mg/kg, PEG400 solution): ≤ 25%
- bioavailability ([2]; 5 mg/kg, 5 mg/kg PO, -ZAF salt nanosuspension (HPMC:DOSS suspension), Study 5): 12 to 69%
- bioavailability ([2]; 20 mg/kg, 20 mg/kg PO, 0.5% HPMC suspension, Study 4): 7 to 89%
- bioavailability ([2]; 20 mg/kg, 20 mg/kg PO, -ZAF salt nanosuspension (HPMC:DOSS suspension), Study 5): 6.7%
- bioavailability ([2]; 22.5 mg/kg, 22.5 mg/kg PO, PEG400/PVP VA 90:10 solution, Study 6): > 100%
- AUC(0-inf) ([2]; 560 mg/kg, 560 mg/kg PO, 100% PEG400 solution, Study 7, N = 1): 1760 µg·h/mL
- AUC(0-inf) [2, 3]: 1360 µg·h/mL
- Cmax [2, 3]: 24300 ng/mL
- Tmax [2, 3]: 15.5 h
- AUC(0-t) ([2]; female, 100 mg/kg, 2F, 100 mg/kg PO, 100% PEG400 solution): 1250 µg·h/mL
- AUC(0-inf) [2, 4]: 1680 µg·h/mL
- Cmax [2, 4]: 30600 ng/mL
- AUC(0-t) ([2]; female, 280 mg/kg, 2F, 280 mg/kg PO, 100% PEG400 solution): 1510 µg·h/mL
- Tmax ([2]; female, 280 mg/kg, 2F, 280 mg/kg PO, 100% PEG400 solution, Study 7, median): 24 h
- Cmax ([2]; female, 280 mg/kg, 2F, 280 mg/kg PO, PEG400/PVP VA 90:10 solution, Study 7): 106000 ng/mL
- AUC(0-t) ([2]; female, 280 mg/kg, 2F, 280 mg/kg PO, PEG400/PVP VA 90:10 solution): 1970 µg·h/mL
- Tmax ([2]; female, 280 mg/kg, 2F, 280 mg/kg PO, PEG400/PVP VA 90:10 solution, Study 7, median): 24 h
- Cmax ([2]; female, 480 mg/kg, 2F, 480 mg/kg PO, PEG400/PVP VA 90:10 solution, Study 7): 76600 ng/mL
